Measured values as given in article PMC6769516, “Apoptotic Effects of Drug Targeting Conjugates Containing Different GnRH Analogs on Colon Carcinoma Cells” (International Journal of Molecular Sciences, 2019).
Like-named read-outs stand apart in the source and are kept apart here. Non-standard residues stand in square brackets, D forms with d. Residues, ends and D or L forms follow the SMILES beside them. *: point of attachment. Daunorubicin(13-NOCH2CO) = COc1cccc2c1C(=O)c1c(O)c3c(c(O)c1C2=O)C[C@@](O)(C(C)=NOCC(=O)*)C[C@@H]3O[C@H]1C[C@H](N)[C@H](O)[C@H](C)O1; pGlu = O=C1CC[C@@H](C(=O)O)N1; Butyryl = CCCC(=O)*

Test system: HT-29 cell line
Test: Cell viability assay, impedance-based xCELLigence SP System
Design: species or system human
Conditions: for IC50: Delta CI normalized to control, sigmoidal fit, mean ± SD of three parallel measurements, read-out: IC50 of cytotoxicity; for Viability (control = 100 %): conjugate at 10^-4 M, mean of three parallels ± SD
Experimental: The effects of different GnRH conjugates on HT-29 cell growth were measured by the xCELLigence SP System (ACEA Biosciences, San Diego, CA, USA), which allows cell viability to be detected in real-time via impedance readouts. The experimental setup and the procedure were almost identical to the one described in more detail in our previous works. The continuous monitoring of cell viability provides the opportunity to determine the difference in the time-dependent cellular response for the various GnRH conjugates and to select the optimal time points to conduct more specific end-point assays (e.g., apoptosis assays) for further investigating the mechanism of antitumor activity. […] CI is a dimensionless value and is calculated from the impedance of the well with cells and the background impedance of the well without cells.
Briefly, the main steps of the experiment are the following: (i) the background measurement, in which 80 µL complete cell culture medium was loaded to each well of an E-plate in order to establish a constant CI value; (ii) the cell monitoring step, in which 100 µL of cell suspension (10^5 cell/mL) was added to each well followed by an incubation period of 24 h; and (iii) the compound activity monitoring step, in which test-conjugates (final concentration range: 32 nM–100 µM) were added to the cells at the plateau phase and the CI change was recorded for a further 72 h at 10 kHz. Stock solutions (5 × 10^−3 M) were prepared from the test-conjugates in distilled water and then further diluted to 320 nM–1 mM in the complete cell culture medium. The wells treated with an adequate volume of pure cell culture medium represented the control. Triplicate wells were used for each treatment for statistical analysis.
Delta CI values—a difference of CI value at the time point of cell inoculation and CI value at a given time point—were calculated by RTCA 2.0 software (ACEA Biosciences, San Diego, CA, USA) integrated into the xCELLigence SP System to characterize the time-dependent antiproliferative/cytotoxic effect of the different GnRH conjugates. IC50 values were used to compare the effect of the conjugates.

Row | SMILES | IC50 (24 h incubation) [µM] | IC50 (48 h incubation) [µM] | IC50 (72 h incubation) [µM] | Viability (control = 100 %) (48 h) [%] | Viability (control = 100 %) (24 h) [%] | Viability (control = 100 %) (72 h) [%]
1 | COc1cccc2c1C(=O)c1c(O)c3c(c(O)c1C2=O)C[C@@](O)(C(C)=NOCC(=O)NCCCC[C@@H](NC(=O)[C@H](Cc1ccc(O)cc1)NC(=O)[C@H](CO)NC(=O)[C@H](Cc1c[nH]c2ccccc12)NC(=O)[C@H](Cc1c[nH]cn1)NC(=O)[C@@H]1CCC(=O)N1)C(=O)N[C@@H](CC(C)C)C(=O)N[C@@H](CCCNC(=N)N)C(=O)N1CCC[C@H]1C(=O)NCC(N)=O)C[C@@H]3O[C@H]1C[C@H](N)[C@H](O)[C@H](C)O1 [I-[^4Ser,^6D-Lys(Dau)], GnRH-I-[^4Ser,^6D-Lys(Dau=Aoa)]] | > 100 | 60.2 ± 3.5 | 21.9 ± 1.54 | 43.82 ± 1.18 | – | –
2 | CCCC(=O)NCCCC[C@H](NC(=O)[C@H](Cc1c[nH]c2ccccc12)NC(=O)[C@H](Cc1c[nH]cn1)NC(=O)[C@@H]1CCC(=O)N1)C(=O)N[C@@H](Cc1c[nH]cn1)C(=O)N[C@H](CCCCNC(=O)CON=C(C)[C@]1(O)Cc2c(O)c3c(c(O)c2[C@@H](O[C@H]2C[C@H](N)[C@H](O)[C@H](C)O2)C1)C(=O)c1c(OC)cccc1C3=O)C(=O)N[C@@H](Cc1c[nH]c2ccccc12)C(=O)N[C@@H](Cc1ccc(O)cc1)C(=O)N1CCC[C@H]1C(=O)NCC(N)=O [II-[^4Lys(Bu),^6D-Lys(Dau)], GnRH-II-[^4Lys(Bu),^6D-Lys(Dau=Aoa)]] ([pGlu]HWK(Butyryl)H[dK](Daunorubicin(13-NOCH2CO))WYPG-NH2) | 65.8 ± 3.89 | 69.7 ± 4.12 | 48.1 ± 6.89 | 19.40 ± 2.77 | 35.64 ± 3.41 | 24.31 ± 4.20
3 | COc1cccc2c1C(=O)c1c(O)c3c(c(O)c1C2=O)C[C@@](O)(C(C)=NOCC(=O)NCCCC[C@@H](NC(=O)[C@H](Cc1c[nH]cn1)NC(=O)[C@H](CO)NC(=O)[C@H](Cc1c[nH]c2ccccc12)NC(=O)[C@H](Cc1c[nH]cn1)NC(=O)[C@@H]1CCC(=O)N1)C(=O)N[C@@H](Cc1c[nH]c2ccccc12)C(=O)N[C@@H](Cc1ccc(O)cc1)C(=O)N1CCC[C@H]1C(=O)NCC(N)=O)C[C@@H]3O[C@H]1C[C@H](N)[C@H](O)[C@H](C)O1 [II-[^4Ser,^6D-Lys(Dau)], GnRH-II-[^4Ser,^6D-Lys(Dau=Aoa)]] ([pGlu]HWSH[dK](Daunorubicin(13-NOCH2CO))WYPG-NH2) | 58.9 ± 10 | 24.2 ± 0.86 | 19.7 ± 2.51 | 16.91 ±1.91 | – | 20.43 ± 2.66
4 | CCCC(=O)NCCCC[C@H](NC(=O)[C@H](Cc1c[nH]c2ccccc12)NC(=O)[C@H](Cc1c[nH]cn1)NC(=O)[C@@H]1CCC(=O)N1)C(=O)N[C@@H](Cc1ccc(O)cc1)C(=O)N[C@H](CCCCNC(=O)CON=C(C)[C@]1(O)Cc2c(O)c3c(c(O)c2[C@@H](O[C@H]2C[C@H](N)[C@H](O)[C@H](C)O2)C1)C(=O)c1c(OC)cccc1C3=O)C(=O)N[C@@H](CC(C)C)C(=O)N[C@@H](CCCNC(=N)N)C(=O)N1CCC[C@H]1C(=O)NCC(N)=O [I-[^4Lys(Bu),^6D-Lys(Dau)], GnRH-I-[^4Lys(Bu),^6D-Lys(Dau=Aoa)]] ([pGlu]HWK(Butyryl)Y[dK](Daunorubicin(13-NOCH2CO))LRPG-NH2) | > 100 | 18.7 ± 1.19 | 16.2 ± 1.75 | 15.50 ± 0.55 | 86.69 ± 4.84 | 5.31 ± 1.27
